# Laboratory results as given in patent US20100261783A1, “CRUCIFEROUS 3H-1,2-DITHIOLE-3-THIONE (D3T) AND METHODS OF PROTECTING AGAINST CELL INJURY” (priority 2009, published 2010).
# Legend:
# [1] = system: primary human cardiomyocytes; details: cited from earlier work
# [2] = system: human neuroblastoma SH-SY5Y cells; test: Induction of cellular antioxidants and phase 2 enzymes (GSH, NQO1, GCL) in SH-SY5Y cells; assay type: cell-based
# human cardiomyocytes [3] = details: cited from earlier work
# human cardiomyocytes [4] = test: Protection of human cardiomyocytes from oxidative/electrophilic injury and doxorubicin toxicity; assay type: cell-based
# SH-SY5Y cells [5] = test: Protection of SH-SY5Y cells against neurotoxicant-elicited cytotoxicity; assay type: cell-based; details: human neuroblastoma SH-SY5Y cells
# human primary astrocytes = test: Induction of cellular antioxidants and phase 2 enzymes in human primary astrocytes; assay type: cell-based
# SH-SY5Y cells [6] = details: D3T-pretreatment; dopamine, 6-hydroxydopamine, 4-hydroxy-2-nonenal, H2O2; cited from earlier work
# [7] = system: primary human cardiomyocytes; test: Induction of antioxidants and phase 2 enzymes in human cardiomyocytes; assay type: cell-based
# [8] = system: human neuroblastoma SH-SY5Y cells; details: D3T-pretreatment of SH-SY5Y cells; cited from earlier work
compound,measurement,setting,value
"S=c1ccss1 [D3T, 3H-1,2-dithiole-3-thione]",upregulation of antioxidants and phase 2 enzymes,[1],potently upregulated
same,induction of glutathione (GSH),[2]; SH-SY5Y cells,marked concentration- and time-dependent induction
same,protein and mRNA expression of gamma-glutamylcysteine ligase (GCL),[2]; SH-SY5Y cells,increased
same,induction of cellular antioxidants and phase 2 enzymes,[2]; human neuronal cells (neuroblastoma SH-SY5Y cells),capable of inducing
same,resistance to oxidative/electrophilic stress and doxorubicin toxicity,human cardiomyocytes [3],increased resistance
same,protection of cardiomyocytes from injury elicited by doxorubicin,human cardiomyocytes [4]; doxorubicin,potently protected
same,protection of cardiomyocytes from injury caused by free radicals and electrophiles,human cardiomyocytes [4]; wide range of free radicals and electrophiles,nearly complete protection
same,protection against acrolein-induced cytotoxicity,SH-SY5Y cells [5],dramatic protection
same,induction of cellular antioxidants including glutathione (GSH) and phase 2 enzymes,human primary astrocytes,able to induce
same,protection against the cytotoxicity elicited by neurotoxicants,SH-SY5Y cells [6],significant protection
same,induction of antioxidants in mitochondria,[7]; mitochondria of the human cardiomyocytes,potently induced
same,induction of a series of antioxidants,"[7]; primary human cardiomyocytes, total cellular",potently induced
same,"induction of GSH, NQO1, and mitochondrial GSH",[8],induction
